Data on 4 compounds can be found in article PMC12186263, “Molecular Basis for Peptide Nitration by a Novel Cytochrome P450 Enzyme in RiPP Biosynthesis” (ACS Catalysis, 2025).

Square brackets hold non-standard residues; d marks the D form. Peptide text beside a SMILES is read from it. Nle = CCCC[C@H](N)C(=O)O

The target of experiment [1] is T1, RufO (Streptomyces atratus, UniProt A0A224AU14).
T1 construct: made in house
T1 sequence (A0A224AU14 1-394): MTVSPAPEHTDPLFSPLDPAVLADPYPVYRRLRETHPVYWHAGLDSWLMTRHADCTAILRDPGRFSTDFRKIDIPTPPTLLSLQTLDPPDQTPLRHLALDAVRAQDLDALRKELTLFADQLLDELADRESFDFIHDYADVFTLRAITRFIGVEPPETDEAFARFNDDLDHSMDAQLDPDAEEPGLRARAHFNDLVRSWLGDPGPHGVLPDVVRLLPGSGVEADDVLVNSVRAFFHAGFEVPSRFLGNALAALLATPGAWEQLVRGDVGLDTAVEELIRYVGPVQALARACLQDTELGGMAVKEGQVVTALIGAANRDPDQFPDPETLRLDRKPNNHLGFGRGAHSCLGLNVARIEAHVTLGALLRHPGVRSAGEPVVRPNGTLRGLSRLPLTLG
Briefly: X-band cw EPR of RufO with peptide. In kind it is binding. Particulars: 100 μM RufO, 2 mM peptide, 10 K; double-integrated intensities. As for the experimental part: 3 Spectroscopic characterization of the RufO heme center with and without peptide substrates. (A) X-band continuous wave EPR spectra of RufO (black), RufO with 2 mM MRYLH (red), and RufO with 2 mM Nle-RYLH (blue), measured at 10 K and 1 mW microwave power. The minor species marked by asterisks likely arise from conformational heterogeneity of the heme center or a freezing artifact. (B) rR spectra of RufO (top), RufO with 2 mM MRYLH (middle), and RufO with 2 mM Nle-RYLH (bottom). The spectra were collected using a 405 nm excitation laser at 5 mW. (C) rR spectra of CO adducts of ferrous RufO (top) and ferrous RufO with 2 mM Nle-RYLH (bottom). Spectra were collected using a 442 nm excitation line at 1 mW. (D) Backbonding correlations between v(Fe–C) and v(C–O) stretching frequencies for various CYPs in the absence (squares) and presence (circles) of ligands. […]
EPR samples were prepared by mixing 100 μM RufO in the same buffer with 5% glycerol and either 2 mM MRYLH or Nle-RYLH, followed by flash-freezing in 4 mm quartz EPR tubes. […] Each sample was measured at 9.35 GHz microwave frequency at 10 K using 1 mW microwave power. All spectra were recorded with four averaged scans using an ER4119HS resonator at a modulation frequency of 100 kHz and a modulation amplitude of 0.4 mT. The conversion rate of the low-spin species was determined by comparing the double-integrated intensities of the signals. […]

In experiment [2] the target is T1, RufO. Briefly: Isothermal titration calorimetry, peptide into RufO. The conditions noted are these: ITC, 20 °C, 190 μM RufO, 50 mM Tris-HCl, 100 mM NaCl pH 7.5, one set of sites, control subtracted. In kind it is binding. (Isothermal titration calorimetry measures the heat released or taken up as one component is titrated into another.)
Procedure: ITC experiments were conducted at 20 °C using a MicroCal PEAQ-ITC instrument (Malvern Panalytical). RufO was prepared in a buffer containing 50 mM Tris-HCl and 100 mM NaCl at pH 7.5. The reference cell was filled with water. Each experiment involved 190 μM RufO in the sample cell, titrated with either 2.5 mM MRYLH or 2.8 mM Nle-RYLH in the syringe. Control experiments replaced the protein in the cell with buffer. The titration protocol included an initial 0.4 μL injection (excluded from analysis), followed by 19 injections of 2 μL at 2.5 min intervals. The cell was continuously stirred at 750 rpm. Data analysis was conducted using MicroCal PEAQ-ITC Analysis Software, with heats of dilution determined from the plateau region of the thermograms and subtracted from each integrated peak. All titrations are baseline corrected. The final integrated enthalpic changes were obtained by subtracting the controls from the protein-peptide titrations and fitted to a “one set of sites” binding model.
In experiment [3] the target is T1, RufO. Kind of experiment: RufO nitration activity assay (HPLC). In kind it is biochemical. The conditions noted are these: 20 μM RufO, 1 mM peptide, SpFdX/SpFdR, pH 8.0, 25 °C, 30 min; highest rate set as 100%; triplicate. As for the experimental part: Each assay was performed in triplicate and contained 20 μM CYP enzyme, 80 μM ferredoxin, 40 μM reductase, 1 mM substrate, 1 mM NADH/NADPH, 1 mM DEA NONOate (≥98%, Cayman Chemical), and 132 μL O2-saturated buffer (50 mM Tris, 100 mM NaCl at pH 8.0, bubbled for 30 min) for a final reaction volume of 200 μL. Reactions with CPR in place of the ferredoxin/reductase system contained 40 μM CPR. Reactions were incubated at 25 °C with shaking at 300 rpm for 30 min, then filtered using a 10 kDa cutoff centrifugal filter (Millipore) and analyzed by HPLC. Filtrate was analyzed on an InertSustain C18 column (5 μm particle size, 4.6 mm × 100 mm, GL Sciences Inc.) on a Thermo Fisher Scientific Ultimate-3000SD HPLC rapid separation system equipped with a photodiode array detector. The flow rate was set at 1 mL/min. For RufO assays, solvent A was water and solvent B was 90% acetonitrile (ACN) in water with 0.1% trifluoroacetic acid (TFA). A gradient of 0–70% solvent B was applied over 15 min. For collection of peptide product peaks for mass spectrometry analysis, TFA in solvent B was replaced with formic acid (FA). The method for TxtE assays used water with 0.1% FA as solvent A and ACN with 0.1% FA as solvent B. A gradient of 0–20% solvent B was applied over 10 min, followed by a 5 min hold at 20% solvent B. All presented traces were monitored at an absorbance wavelength of 280 nm. […]

Another experiment relates to ferrous RufO. Kind of experiment: Stopped-flow transient kinetics of O2 and •NO binding to ferrous RufO. Particulars: for association rate constant k1: 3.3 μM ferrous RufO; for association rate constant k1 / dissociation rate constant k2 (y-intercept): pH 8.0, linear fit. As for the experimental part: 5 Transient kinetics of ferrous RufO binding to O2 and ^•NO. Spectral changes following the rapid mixing of 3.3 μM ferrous RufO bound to MRYLH with (A) 18 μM O2 and (C) 70 μM ^•NO over 0.2 s. The black-to-red spectral transitions represent the formation of (A) a ferric-superoxo intermediate and (C) a ferrous-nitrosyl complex. Insets show the time-dependent absorbance changes at 438 nm (the most pronounced shift), fitted using single exponential equations to determine rate constants (red trace). Dependence of rate constant as a function of gas concentration on (B) O2 and (D) ^•NO binding to ferrous RufO alone (blue) and peptide-bound RufO (red). Second-order rate constants were determined through linear fitting. TEXT PRINTED IN THE PICTURE: (A) + O2: kobs = 74.3 s^-1 | (B) RufO alone: k1 = 3.55 μM^-1 s^-1 | (B) peptide-bound: k1 = 3.83 μM^-1 s^-1 | (C) + •NO: kobs = 107.4 s^-1 | (D) RufO alone: k1 = 4.12 μM^-1 s^-1 | (D) peptide-bound: k1 = 2.35 μM^-1 s^-1
Stopped-flow spectroscopic data were collected using an Applied Photophysics SX20 stopped-flow system equipped with a photodiode array detector. The system was maintained in an anaerobic chamber (O2 < 1 ppm) and all sample preparation was done anaerobically. Measurements were performed at 4 °C. All samples were prepared in a buffer containing 50 mM Tris-HCl and 100 mM NaCl, pH 8.0. RufO was prereduced with a minimal amount of sodium dithionite. The final mixed concentrations of RufO and MRYLH (where applicable) were 3.3 and 24 μM, respectively. Solutions of varying O2 concentrations were prepared by diluting air-saturated buffer with anaerobic buffer. The concentrations of O2 in the air-saturated buffer were measured with an Oxygraph+ oxygen electrode (Hansatech). To generate ^•NO-containing solutions, 0.5 mM DEA NONOate (≥98%, Cayman Chemical) was incubated in anaerobic buffer for 4 h to ensure complete ^•NO release. The ^•NO concentrations were quantified based on a hemoglobin assay, and further dilutions were made with anaerobic buffer immediately prior to mixing. Experimental data were analyzed by the ProK software package from Applied Photophysics. The second-order rate constants were obtained from linear fitting, with the resulting equations: y = 3.55x + 54.4 for the mixing of RufO with O2, y = 3.83x + 6.5 for the ES complex with O2, y = 4.12x −158.0 for RufO with ^•NO, and y = 2.35x – 58.9 for the ES complex with ^•NO.
Figure S9. Transient kinetics of ferrous RufO alone binding to O2 and •NO Spectral changes following the rapid mixing of 3.3 μM ferrous RufO with (A) 18 μM O 2 and […] superoxo intermediate and (B) a ferrous-nitrosyl complex. Insets show the time-dependent absorbance changes at 438 nm (the most pronounced shift), fitted using first-order exponential equations to determine rate constants (red trace).
(1 picture or pasted object on this page, not shown here)

A further experiment deals with T2, TxtE (Streptomyces scabiei, UniProt C9ZDC6).
T2 sequence (C9ZDC6 1-406): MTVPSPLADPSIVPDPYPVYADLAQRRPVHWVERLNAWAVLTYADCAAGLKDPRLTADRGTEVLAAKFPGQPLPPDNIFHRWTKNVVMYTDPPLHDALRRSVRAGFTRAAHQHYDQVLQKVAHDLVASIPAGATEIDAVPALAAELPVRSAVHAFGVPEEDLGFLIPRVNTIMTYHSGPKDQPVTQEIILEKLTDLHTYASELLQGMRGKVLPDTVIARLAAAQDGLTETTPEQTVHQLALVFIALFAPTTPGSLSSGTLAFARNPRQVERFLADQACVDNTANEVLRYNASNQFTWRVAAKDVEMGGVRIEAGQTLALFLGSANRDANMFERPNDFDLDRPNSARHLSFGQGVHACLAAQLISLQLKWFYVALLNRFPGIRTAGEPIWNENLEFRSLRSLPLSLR
Particulars: Trp-bound TxtE; reported, ref number not given; cited from earlier work.

Experiment [4] addresses T1, RufO. Briefly: LC-MS of single-turnover RufO reaction with sequential O2 and •NO addition. In kind it is biochemical. The conditions noted are these: 100 μM pre-reduced RufO, 150 μM MRYLH, 150 μM O2 30 s then 150 μM •NO 30 s, 50 mM ammonium acetate pH 7.5.
Experiment [5] has as its target T1, RufO. Particulars: spectroscopic and structural analyses; ref number not given; cited from earlier work. The text has this: Recent studies on a nitrating CYP have showcased collective efforts to uncover a novel enzymatic function in RiPP biosynthesis. Nitration is a biologically significant transformation that modifies the function, stability, and reactivity of proteins and other biomolecules. − While most biological nitration processes are known to proceed through less specific reactions involving peroxynitrite and other nitrative reactive species, , biocatalytic nitration is rare and underexplored. The first example was reported for TxtE in thaxtomin biosynthesis, which catalyzes the direct nitration of L-trypto ...

Experiment [6] has as its target T1, RufO. Particulars: recent report, ref number not given; cited from earlier work. The text has this:
The integration of spectroscopic and structural characterization allows us to elucidate the molecular mechanism of substrate recognition and nitration activity in RufO. Our findings provide important insights into the catalytic process, enabling us to propose a mechanistic model for RufO-mediated peptide nitration (Figure S13). In its resting state, RufO adopts a six-coordinate, low-spin heme configuration with a water molecule as the distal ligand. While its heme environment is spectroscopically similar to that of typical CYPs, the flexibility of the B/C loop and the F and G helices contribut ...

The mark [7] stands for this setting: peptide-bound ferrous RufO + O2, 4 °C, pH 8.0.

In general, Kd refers to the free concentration of one partner at which half of the binding sites on the other are occupied at equilibrium, for simple one-to-one binding. Higher therefore signals lower affinity. On to `CCCC[C@H](N)C(=O)N[C@@H](CCCNC(=N)N)C(=O)N[C@@H](Cc1ccc(O)cc1)C(=O)N[C@@H](CC(C)C)C(=O)N[C@@H](Cc1c[nH]cn1)C(=O)O` [Nle-RYLH] (H-[Nle]RYLH-OH), for which the “conversion of original low-spin species to new low-spin species” value on RufO [1] amounted to 84%. This compound also yielded a Kd on RufO [2] of 1.6 µM. In addition, at RufO [3], the “conversion rate (normalized)” value came out at 100%.

In the case of `O=O` [O2], the kobs in the experiment with ferrous RufO (MRYLH-bound ferrous RufO 3.3 μM, 18 μM O2, 438 nm, single exponential, 4 °C) is 74.3 s⁻¹. The “association rate constant k1” value in the experiment with ferrous RufO (MRYLH-bound, 24 μM MRYLH, 4 °C) is listed as 3.83 μM^–1 s^–1; with ferrous RufO (RufO alone, 4 °C), 3.55 μM^–1 s^–1. Further, the “dissociation rate constant k2 (y-intercept)” value in the experiment on ferrous RufO (RufO alone, 4 °C) was determined as 54.4 s^–1; in the experiment with ferrous RufO (peptide-bound RufO, 4 °C), 6.5 s^–1. Also, the “O2 binding faster than •NO (times)” value in the experiment with ferrous RufO (in the presence of the peptide, ratio of k1) is on record as 1.6 times. Moreover, in the experiment with ferrous RufO (setting [7]), the “ferric-superoxo intermediate stable for up to” value was “up to 100 s”. Also, the “time of peak of ferric-superoxo intermediate” value in the experiment on ferrous RufO (setting [7]) was “approximately 0.05 s”. Besides, the “k1 of O2 binding” value on TxtE is given as 4.43 μM^–1 s^–1. Moreover, the “product yield, O2-first vs reverse order” value on RufO [4] was “approximately double the product yield”.

`N[C@@H](Cc1ccc(O)cc1)C(=O)O` [Tyr, L-tyrosine]: the “binding to RufO, in words” value at RufO [5] is given as “unable to bind”.

Take MRFLH: the “nitration by RufO, in words” value at RufO [6] was “RufO cannot nitrate”.
